Reference: patent US7838608B2, “Fluorinated surfactants for making fluoropolymers” (3M Innovative Properties Company, priority 2005, dated 2010)

Assay: Determination of bio-accumulation: urinary clearance pharmacokinetic study in rats
Settings: oral gavage, 73 micro Moles per kg body weight
Experimental: Determination of Bio-Accumulation
The fluorinated surfactants were evaluated for urinary clearance using a pharmacokinetic study in rats. The goal was to measure the total amount of parent compound eliminated via urinary output and estimate the rate of elimination.
The study utilized male Sprague Dawley rats, 6 to 8 weeks of age, and approximately 200 to 250 g body weight at study onset. The test compounds of table 2 were administered at a dose of 73 micro Moles per kg body weight in rats (N=3 animals per tested compound). All test compounds were prepared in sterile deionized water and given to rats via oral gavage. After test compounds administration, the rats were housed individually in metabolism cages for urine collection: 0 to 6 hours, 6 to 24 hours, 24 to 48 hours and 72 to 96 hours. Animals were observed throughout the study for clinical signs of toxicity. Gross necropsy was performed at the termination of each study (96 hours post-dose) with sera and liver samples being retained from each animal.
The concentration of the parent compound or metabolites thereof were quantitatively measured via fluorine NMR on each urine sample for each animal at each time point based on internally added standards.
T1/2 is the renal half-life and is the time required for the amount of a particular substance in a biological system to be reduced to one half of its value by biological processes when the rate of removal is approximately exponential. In these examples the value of T1/2 is calculated by exponential least squares curve fitting (y=Ae^Bx and T1/2=0.693/B) where y represents the concentration of analyte in urine and x represents time in hours.

Row | SMILES | Compound-related Effects (clinical signs of toxicity and gross necropsy at 96 hours post-dose) | % Recovery (96 h) (recovery in urine after 96 h) | T½ (renal elimination half-life) (urine measured by fluorine NMR, exponential least squares curve fitting)
1 | N.O=C(O)C(F)(F)C(F)(F)C(F)(F)C(F)(F)C(F)(F)C(F)(F)C(F)(F)F [APFO, ammonium perfluorooctanoic acid, reference compound] | Hepatomegaly | – | –
2 | N.O=C(O)C(F)OC(F)(F)C(F)(F)C(F)(F)OC(F)(F)F (stereo not drawn) [Compound 3, CF3—O—CF2—CF2—CF2—O—CHF—COONH4] | – | 95% | 11 h
